The target of test [1] is p38alpha (Homo sapiens (Human), UniProt Q16539). Put plainly: Cell-free kinase assay (ALPHA technology), p38alpha. Particulars: 10 μM ATP. Format: biochemical.
In test [2] the test system is Jnk1 + Jnk2. The test can be described thus: Cell-free kinase assay (ALPHA technology), Jnk1 + Jnk2. Format: biochemical, human. Particulars: 10 μM ATP. In outline:
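Recombinant human GST- or His-tagged kinases were assayed for 1 h with ALPHA bead detection read after overnight standing. For PI3Kalpha: 1 ng enzyme, 100 μM ATP, 20 μM PIP2 in Hepes pH 7.4, detected by GST:Grp1/biotin-PIP3 competition. The p38alpha and Jnk assays followed the MAPK format (10 μM ATP, biotin-MBP, anti-phospho-MBP); IC50 from %-inhibition.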

Test [3] concerns Erk → pRsk. Put plainly: Cellular substrate phosphorylation (Western Blotting), Erk substrate pRsk. Conditions: 50 μM, 5 h. Format: cell-based. As to the method: (§1) This method can be used to predict whether the kinase modulator under study also achieves the desired effect in a cellular context, i.e. in this case, a substrate protein downstream of the target kinase is investigated for its phosphorylation status. For this purpose, the cells incubated with substance are lysed and the total protein separated on a reducing polyacrylamide gel. The proteins are then transferred to a PVDF membrane by means of Western Blotting and the substrate bands sought are made visible with specific antibodies and a suitable detection method. The substrate proteins downstream of the target kinases are detected simultaneously with a respectively special anti-phospho-antibody and at the same time a total antibody which recognizes the substrate total protein. This simultaneous measurement can be made using the duplex technology of the ODYSSEY imagers (LiCOR). The intensity of the total substrate bands is used for normalising or quantifying the phosphorylation inhibition or activation.
(§2) Suitable tumour cell lines (e.g. BxPC3, Hct116 or MDA MB468) were injected into six-well microtitre plates in a defined cell number (e.g. 350 000 cells/well for BxPC3 and Hct116) in the respective standard complete medium and then incubated overnight at 37° C., 5% CO2 and 95% air humidity. The cells were then incubated for a further 24 h under serum-reduced conditions i.e. in the respective medium but with only 0.25% serum. The test substances were prepared as stock solutions (10 mM) in DMSO and incubated with the cells in final concentrations of 5, 15.8 and 50 μM for 5 h. This was followed by cell lysis in 25 mM Tris, 150 mM NaCl, 10 mM Na-pyrophosphate, 2 mM EGTA, 25 mM β-glycerophosphate, 25 mM NaF, 10% glycerine, 0.75% NP-40, 100 μM NaVO4 buffer. Following protein quantification by means of BCA (bicinchonic acid protein assay kit, Sigma) Assay, protein quantities of about 20 μg per track were separated on a Lämmli polyacrylamide gel and then transferred to a PVDF membrane (Millipore) by means of Semi-Dry Western-Blotting at 0.8 mA/cm^2 for 1 h. This was followed by pre-hybridisation of the membrane for 1 hour in I-block reagent (Applied Biosystems) and incubation overnight with the specific antibodies. To determine the Erk and PI3K inhibition, the respectively downstream substrates Rsk1 were detected with the total antibody (Rsk #sc-231g C-21, Santa Cruz) and the phospho-antibody (Phospho-p90RSK (S380) #9341, NEB Cell Signalling) and Akt was detected with the total antibody (Akt1 #sc-1618 C-20, Santa Cruz) and the phospho-antibody (Phospho-Akt (Ser 473) #9271, NEB Cell Signaling). After washing the membrane, secondary antibody incubation was carried out with anti-rabbit IR Dye 800 (#611-732-127, Rockland) for the phospho-antibody and anti-goat Alexa Fluor 680 (#A-21081, Molecular Probes) for the total protein-antibody. After incubating for 30 min at room temperature in the dark, the hybridisation of the detection antibody on the membrane was detected by scanning in the ODYSSEY imager (LiCOR).
(§3) The reduction of the fluorescence intensity of the phospho-substrate bands (pRsk and pAkt) is given in the table below as % inhibition and relates to the following formula:
(§4) The band intensity (fluorescence intensity) of the respective non-inhibited (without substance) phospho-substrates was used as 100% control.

The test system of test [4] is PI3K → pAkt. The test can be described thus: Cellular substrate phosphorylation (Western Blotting), PI3K substrate pAkt. Type of test: cell-based. Conditions: 50 μM, 5 h. On the procedure: as §1, §2, §3, §4
(In western blotting, separated proteins are transferred to a membrane and probed.)

Where only a bound is given, the exact number is not on record here.

Sequence of p38alpha (Q16539 whole entry): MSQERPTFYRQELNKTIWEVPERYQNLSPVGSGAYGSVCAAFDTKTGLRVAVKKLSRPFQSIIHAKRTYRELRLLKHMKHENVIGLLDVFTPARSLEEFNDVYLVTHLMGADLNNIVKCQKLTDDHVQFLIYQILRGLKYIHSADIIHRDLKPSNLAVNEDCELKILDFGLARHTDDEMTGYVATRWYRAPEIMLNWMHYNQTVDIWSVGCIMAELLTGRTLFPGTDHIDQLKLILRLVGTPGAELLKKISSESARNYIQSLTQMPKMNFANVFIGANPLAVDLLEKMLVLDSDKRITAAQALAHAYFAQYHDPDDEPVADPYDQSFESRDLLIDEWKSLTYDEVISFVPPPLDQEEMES

Usually IC50 stands for the point on the concentration scale where inhibition reaches its midpoint. The term inhibition denotes how much of the control response was suppressed. Take `C=CCNC(=S)Nc1ccc2ncc(-c3ccc(O)cc3)nc2n1` [Compound 30, 1-allyl-3-[3-(4-hydroxy-phenyl)-pyrido[2,3-b]pyrazin-6-yl]-thiourea]: the IC50 in test [1] was more than 100 µM; in test [2] it was 21.8 µM. The inhibition at 50 µM in test [3] worked out at 90%; in test [4], 100%.
`CCNC(=O)Nc1ccc2ncc(-c3ccc(O)c(OC)c3)nc2n1` [Compound 124, 1-Ethyl-3-[3-(4-hydroxy-3-methoxy-phenyl)-pyrido[2,3-b]pyrazin-6-yl]-urea]: the IC50 in test [1] was more than 100 µM; in test [2], 1 µM. Also, the inhibition at 50 µM in test [3] and in test [4] was 90% in each case.
With `O=C(NCCCCO)Nc1ccc2ncc(-c3ccccc3)nc2n1` [Compound 146, 1-(4-Hydroxy-butyl)-3-(3-phenyl-pyrido[2,3-b]pyrazin-6-yl)-urea], the 50% inhibitory concentration (IC50) is more than 100 µM in test [1] and 3.3 µM in test [2]. Further, the inhibition at 50 µM in test [3] was 100%; in test [4], 10%.
With `CCNC(=O)Nc1ccc2ncc(Nc3ccc(C)cc3)nc2n1` [Compound 150, 1-Ethyl-3-(3-p-tolylamino-pyrido[2,3-b]pyrazin-6-yl)-urea], the IC50 in test [1] was 18.1 µM; in test [2] it was more than 100 µM. Further, the inhibition at 50 µM came to 0% in test [3] and 90% in test [4].
On to `CCNC(=O)Nc1ccc2ncc(-c3cnn(C)c3)nc2n1` [Compound 173, 1-Ethyl-3-[3-(1-methyl-1H-pyrazol-4-yl)-pyrido[2,3-b]pyrazin-6-yl]-urea], for which the IC50 in test [1] is more than 100 µM; in test [2], 2.9 µM. The inhibition at 50 µM is 90% in test [3] and 50% in test [4].
With `CCNC(=O)Nc1ccc2ncc(-c3ccc(O)c(OC)c3)nc2n1.Cc1ccc(S(=O)(=O)O)cc1` [Compound 183, 1-Ethyl-3-[3-(4-hydroxy-3-methoxy-phenyl)-pyrido[2,3-b]pyrazin-6-yl]-urea p-Toluolsulfonate], the IC50 in test [1] is more than 100 µM; in test [2] it was 4.7 µM. Further, the “Inhibition of cellular substrate phosphorylation Erk → pRsk” value in test [3] was found to be 80%. The “Inhibition of cellular substrate phosphorylation PI3K → pAkt” value in test [4] turned out to be 80%.

Values taken from US8937068B2, “Pyridopyrazine derivatives and their use” (Zentaris GmbH, priority 2005, dated 2015).
